According to patent publication US10058534B2, “Benzothiophene derivatives and compositions thereof as selective estrogen receptor degraders” (NOVARTIS AG, priority 2013, dated 2018):
Each block holds one compound with its values, some of them ahead of it.

Biological target: ERα (Homo sapiens (Human), UniProt P03372)
Assay: ERα degradation (MCF7 cells), in-cell Western
Format: cell-based
Settings: for IC50: inflection point of the degradation in response to ligand concentration; for IC50 / % ERα remaining: MCF7 cells; for % ERα remaining: remaining ERα protein at 10 μM ligand, relative to DMSO control; for ER Percentage remaining: degradation potential
Experimental: ERα Degradation (MCF7 Cells)
The column titled MCF7 IC50 reports the inflection point of the inhibition of transcription in MCF7 cells as described above. Percentage ERα remaining reports the remaining ERα protein measured at 10 μM concentration of the ligand as described above. The column ERα IC50 reports the inflection point of the degradation in response to the ligand concentration.

Sequence of ERα (P03372 whole entry): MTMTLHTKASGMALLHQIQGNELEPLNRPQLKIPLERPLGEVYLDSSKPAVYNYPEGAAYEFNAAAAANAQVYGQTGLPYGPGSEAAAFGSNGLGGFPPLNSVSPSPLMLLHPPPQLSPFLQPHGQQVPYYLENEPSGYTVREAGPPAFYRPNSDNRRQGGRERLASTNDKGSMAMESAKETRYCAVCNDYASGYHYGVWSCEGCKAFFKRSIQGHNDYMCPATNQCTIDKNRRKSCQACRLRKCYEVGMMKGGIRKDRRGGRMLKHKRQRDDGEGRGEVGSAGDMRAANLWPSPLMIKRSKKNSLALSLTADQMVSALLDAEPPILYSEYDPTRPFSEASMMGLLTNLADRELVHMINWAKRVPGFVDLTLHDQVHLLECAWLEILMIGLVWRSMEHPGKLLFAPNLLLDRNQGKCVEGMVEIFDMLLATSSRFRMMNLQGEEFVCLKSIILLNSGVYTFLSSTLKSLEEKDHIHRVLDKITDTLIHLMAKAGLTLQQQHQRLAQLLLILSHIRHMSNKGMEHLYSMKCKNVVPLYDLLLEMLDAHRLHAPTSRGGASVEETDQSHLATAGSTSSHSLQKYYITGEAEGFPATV

SMILES: O=c1nc(/C=C/c2ccc(Oc3c(-c4ccc(O)cc4)sc4cc(O)ccc34)cc2)cc(C(F)(F)F)[nH]1 [Example 50, (E)-4-(4-((6-hydroxy-2-(4-hydroxyphenyl)-benzo[b]thiophen-3-yl)oxy)styryl)-6-(trifluoromethyl) pyrimidin-2(1H)-one]
IC50: 22 nM
% ERα remaining: 36%

SMILES: Cc1cc(/C=C/C(=O)O)ccc1Oc1c(-c2ccc(O)cc2)sc2cc(O)ccc12 [Example 57, (E)-3-(4-((6-hydroxy-2-(4-hydroxyphenyl)-benzo[b]thiophen-3-yl)oxy)-3-methylphenyl)acrylic acid]
% ERα remaining: 37%

SMILES: O=C(O)/C=C/c1ccc(Oc2c(-c3ccc(OC(F)(F)F)cc3)sc3cc(O)ccc23)cc1 [Example 59, (E)-3-(4-((6-hydroxy-2-(4-(trifluoromethoxy)-phenyl)benzo[b]thiophen-3-yl)oxy)phenyl)-acrylic acid]
IC50: 30 nM
% ERα remaining: 17%

SMILES: O=C(O)/C=C/c1ccc(Oc2c(-c3ccccc3)sc3cc(O)ccc23)cc1 [Example 60, (E)-3-(4-((6-hydroxy-2-phenylbenzo[b]thiophen-3-yl)oxy)phenyl)-acrylic acid]
IC50: 26 nM
% ERα remaining: 23%

SMILES: C/C(=C\C(=O)O)c1ccc(Oc2c(-c3ccc(O)cc3)sc3cc(O)ccc23)cc1 [Example 62, (E)-3-(4-((6-hydroxy-2-(4-hydroxyphenyl)-benzo[b]thiophen-3-yl)oxy)phenyl)but-2-enoic acid]
% ERα remaining: 42%

SMILES: CNC(=O)/C=C/c1ccc(Oc2c(-c3ccc(C(F)(F)F)cc3)sc3cc(O)ccc23)cc1 [Example 63, (E)-3-(4-((6-hydroxy-2-(4-(trifluoromethyl)-phenyl)benzo[b]thiophen-3-yl)oxy)phenyl)-N-methylacrylamide]
IC50: 24 nM
% ERα remaining: 26%

SMILES: NC(=O)/C=C/c1ccc(Oc2c(-c3ccc(O)cc3)sc3cc(O)ccc23)cc1 [Example 64, (E)-3-(4-((6-hydroxy-2-(4-hydroxyphenyl)-benzo[b]thiophen-3-yl)oxy)phenyl)acrylamide]
% ERα remaining: 48%

SMILES: O=C(/C=C/c1ccc(Oc2c(-c3ccc(O)cc3)sc3cc(O)ccc23)cc1)NCCO [Example 65, (E)-3-(4-((6-hydroxy-2-(4-hydroxyphenyl)benzo[b]thiophen-3-yl)oxy)phenyl)-N-(2-hydroxyethyl)acrylamide]
% ERα remaining: 47%

SMILES: CNC(=O)/C=C/c1ccc(Oc2c(-c3ccc(O)cc3)sc3cc(O)ccc23)cc1 [Example 66, (E)-3-(4-((6-hydroxy-2-(4-hydroxyphenyl)benzo[b]thiophen-3-yl)oxy)phenyl)-N-methylacrylamide]
IC50: 58 nM
% ERα remaining: 40%

SMILES: CNC(=O)/C=C/c1ccc(Oc2c(-c3ccc(F)cc3)sc3cc(O)ccc23)cc1 [Example 67, (E)-3-(4-((2-(4-fluorophenyl)-6-hydroxybenzo[b]thiophen-3-yl)oxy)phenyl)-N-methylacrylamide]
IC50: 347 nM
% ERα remaining: 36%

SMILES: CNC(=O)/C=C/c1ccc(Oc2c(-c3ccc(O)c(C)c3)sc3cc(O)ccc23)cc1 [Example 68, (E)-3-(4-((6-hydroxy-2-(4-hydroxy-3-methylphenyl)benzo[b]thiophen-3-yl)oxy)phenyl)-N-methylacrylamide]
IC50: 161 nM
% ERα remaining: 43%

SMILES: CCCn1cncc1/C=C/c1ccc(Oc2c(-c3ccc(O)cc3)sc3cc(O)ccc23)cc1 [Example 75, (E)-2-(4-hydroxyphenyl)-3-(4-(2-(1-propyl-1H-imidazol-5-yl)vinyl)phenoxy)benzo [b]thiophen-6-ol]
% ERα remaining: 41%

SMILES: COCc1ccccc1-c1sc2cc(O)ccc2c1Oc1ccc(/C=C/C(=O)O)cc1 [Example 80, (E)-3-(4-((6-hydroxy-2-(2-(methoxymethyl)phenyl)benzo[b]thiophen-3-yl)oxy)phenyl)acrylic acid]
% ERα remaining: 14%

SMILES: CCc1cccc(CC)c1-c1sc2cc(O)ccc2c1Oc1ccc(/C=C/C(=O)O)cc1 [Example 130, (E)-3-(4-((2-(2,6-diethylphenyl)-6-hydroxybenzo[b]thiophen-3-yl)oxy)phenyl)acrylic acid]
% ERα remaining: 12%

SMILES: O=C(O)/C=C/c1ccc(Oc2c(-c3ccc(O)cc3)sc3cc(O)ccc23)cc1 [drawing 5]
ER Percentage remaining (comparison of X position): 41 Percentage

SMILES: O=C(O)/C=C/c1ccc(Oc2c(-c3ccc(O)cc3)sc3cc(O)ccc23)cc1 [drawing 8]
ER Percentage remaining (comparison of linker length between phenyl and -C(O)OH): 41 Percentage

SMILES: O=C(O)/C=C/c1ccc(-c2c(-c3ccc(O)cc3)sc3cc(O)ccc23)cc1 [reference compound]
ER Percentage remaining (comparison of X position): 76 Percentage

SMILES: O=C(O)/C=C/c1ccc(C(=O)c2c(-c3ccc(O)cc3)sc3cc(O)ccc23)cc1 [reference compound]
ER Percentage remaining (comparison of X position): 60 Percentage

Now from value to compound:

IC50: 5 nM
% ERα remaining: 41%
SMILES: Cc1nnc(/C=C/c2ccc(Oc3c(-c4ccc(F)cc4C)sc4cc(O)ccc34)cc2)o1 [Example 46, (E)-2-(4-fluoro-2-methylphenyl)-3-(4-(2-(5-methyl-1,3,4-oxadiazol-2-yl)vinyl)phenoxy)benzo[b]thiophen-6-ol]

% ERα remaining: 44%
SMILES: Cc1cc(F)ccc1-c1sc2cc(O)ccc2c1Oc1ccc(/C=C/c2n[nH]c(=O)o2)cc1 [Example 48, (E)-5-(4-((2-(4-fluoro-2-methylphenyl)-6-hydroxybenzo [b]thiophen-3-yl)oxy)styryl)-1,3,4-oxadiazol-2(3H)-one]

% ERα remaining: 28%
SMILES: Cc1nnc(/C=C/c2ccc(Oc3c(-c4ccc(F)cc4C)sc4cc(O)ccc34)cc2)[nH]1 [Example 49, (E)-2-(4-fluoro-2-methylphenyl)-3-(4-(2-(5-methyl-4H-1,2,4-triazol-3-yl)vinyl)phenoxy)benzo[b]thiophen-6-ol]

IC50: 11 nM
% ERα remaining: 41%
SMILES: Cc1cc(F)ccc1-c1sc2cc(O)ccc2c1Oc1ccc(/C=C/c2nnnn2C)cc1 [Example 51, (E)-2-(4-fluoro-2-methylphenyl)-3-(4-(2-(1-methyl-1H-tetrazol-5-yl)vinyl)phenoxy)-benzo[b]thiophen-6-ol]

IC50: 223 nM
% ERα remaining: 41%
SMILES: Cn1nnnc1/C=C/c1ccc(Oc2c(-c3ccc(F)cc3)sc3cc(O)ccc23)cc1 [Example 52, (E)-2-(4-fluorophenyl)-3-(4-(2-(1-methyl-1H-tetrazol-5-yl)vinyl)phenoxy)benzo [b]thiophen-6-ol]

% ERα remaining: 43%
SMILES: CCCn1nnnc1/C=C/c1ccc(Oc2c(-c3ccc(F)cc3C)sc3cc(O)ccc23)cc1 [Example 53, (E)-2-(4-fluoro-2-methylphenyl)-3-(4-(2-(1-propyl-1H-tetrazol-5-yl)vinyl)phenoxy) benzo[b]thiophen-6-ol]

IC50: 60 nM
% ERα remaining: 39%
SMILES: Cn1nnnc1/C=C/c1ccc(Oc2c(-c3ccc(O)cc3)sc3cc(O)ccc23)cc1 [Example 54, (E)-2-(4-hydroxyphenyl)-3-(4-(2-(1-methyl-1H-tetrazol-5-yl)vinyl)phenoxy)benzo[b]thiophen-6-ol]

IC50: 18 nM
% ERα remaining: 26%
SMILES: Cc1cc(-c2sc3cc(O)ccc3c2Oc2ccc(/C=C/C(=O)O)cc2)ccc1O [Example 61, (E)-3-(4-((6-hydroxy-2-(4-hydroxy-3-methylphenyl)benzo[b]thiophen-3-yl)oxy)phenyl)acrylic acid]

IC50: 47 nM
% ERα remaining: 42%
SMILES: Cc1cc(F)ccc1-c1sc2cc(O)ccc2c1Oc1ccc(/C=C/c2nnc(C3CC3)o2)cc1 [Example 76, (E)-3-(4-(2-(5-cyclopropyl-1,3,4-oxadiazol-2-yl)vinyl)phenoxy)-2-(4-fluoro-2-methylphenyl)benzo[b] thiophen-6-ol]

% ERα remaining: 17%
SMILES: Cc1cc(F)ccc1-c1sc2cc(O)ccc2c1Oc1ccc(/C=C/c2nnc(C)n2C)cc1 [Example 106, (E)-3-(4-(2-(4,5-dimethyl-4H-1,2,4-triazol-3-yl)vinyl)phenoxy)-2-(4-fluoro-2-methylphenyl)benzo[b] thiophen-6-ol]

% ERα remaining: 43%
SMILES: CCCc1nnc(/C=C/c2ccc(Oc3c(-c4ccc(F)cc4C)sc4cc(O)ccc34)cc2)o1 [compound 47, (E)-2-(4-fluoro-2-methylphenyl)-3-(4-(2-(5-propyl-1,3,4-oxadiazol-2-yl)vinyl)phenoxy)benzo [b]thiophen-6-ol]

IC50: 34 nM
% ERα remaining: 33%
SMILES: Cn1nnc(/C=C/c2ccc(Oc3c(-c4ccc(O)cc4)sc4cc(O)ccc34)cc2)n1 [compound 55, (E)-2-(4-hydroxyphenyl)-3-(4-(2-(2-methyl-2H-tetrazol-5-yl)vinyl)-phenoxy)benzo[b] thiophen-6-ol]
